Reference: publication PMC5677254, “Design, Synthesis, and Characterization of N-Oxide-Containing Heterocycles with in Vivo Sterilizing Antitubercular Activity” (Journal of Medicinal Chemistry, 2017)
In brackets after ≈: the same amount, converted by molar mass. Several values for one entry are separate records, joined by “and”; a condition that tells them apart may be missing. Identical values can stand only once. Like-named read-outs stand apart in the source and are kept apart here.

What was measured:
Mtb H37Rv (ATCC 27294) [1] = assay: Resazurin microtiter assay (REMA), MIC90 against bacteria in active state; type: cell-based; conditions: Mycobacterium tuberculosis, actively replicating M. tuberculosis H37Rv, REMA; for MIC90: read-out: MIC90
[2] = Cytotoxicity against MRC-5 cell line; conditions: human, cytotoxicity IC50, MRC-5 cell line
[3] = test system: Escherichia coli (ATCC 25922); assay: Spectrum of activity, OD570 after 16 h; type: cell-based; conditions: ATCC25922, read-out: MIC90 (antimicrobial activity)
Experimental: (§1) Determination of Minimal Inhibitory Concentration (MIC90) Against Bacteria in Dormant […]
(§2) The selective compounds (SI ≥ 10) were tested against the mycobacterium in a dormant state. The cultures were thawed, diluted in Middlebrook 7H12 broth, and sonicated for 5 s. The cultures were diluted to obtain the concentration between […] and 2 × 10^6 CFU/mL. TwoHfold serial dilutions of the compounds were prepared in a volume of […] in white 96Hwell microtiter plates, followed by the addition of […] of the cell suspension. The microplate cultures were placed under anaerobic conditions (oxygen concentration less than 0.16%) by using an Anoxomat model WS8080 (MART Microbiology) followed by two cycles of evacuation and filling with a mixture of 10% hydrogen (H2), 5% carbon dioxide (CO2), and the balance with nitrogen (N2). An anaerobic indicator strip was placed inside the chamber to visually confirm the removal of oxygen. The plates were incubated at 37°C for 10 days and then transferred to an ambient gaseous condition (5% CO2H enriched air) incubator for a 28 h “recovery.” On day 11 (after the 28Hh aerobic recovery), we determined the luminescence and calculated the MIC90.4
(§3) To establish the spectrum activity, we determined the MIC90 against E. coli (ATCC 25922) and S. aureus (ATCC 29213) by measuring the optical density at 570 nm after 16 h of incubation in Mueller–Hinton II broth (Becton Dickinson, Sparks; Maryland, United States) and against C. albicans (ATCC 10231) at OD570 after 48 h in Cellgro RPMI 1640 medium (Mediatech Inc., Manassas, Virginia, United States). The MIC was defined as the lowest concentration resulting in 90% reduction in absorption relative to that of untreated control cultures.
(§4) Determination of Minimal Inhibitory Concentration Against Isogenic Monoresistant Strains

[4] = test system: Staphylococcus aureus (ATCC 29213); assay: Spectrum of activity, OD570 after 16 h; type: cell-based; conditions: ATCC29213, read-out: MIC90 (antimicrobial activity)
Experimental: as §1, §2, §3, §4

[5] = test system: Candida albicans (ATCC 10231); assay: Spectrum of activity, OD570 after 48 h; type: cell-based; conditions: ATCC10231, read-out: MIC90 (antimicrobial activity)
Experimental: as §1, §2, §3, §4

[6] = test system: dormant M. tuberculosis H37Rv; assay: microbe, parasite or virus in culture; type: cell-based; conditions: Mycobacterium tuberculosis, dormant (nonreplicating) M. tuberculosis H37Rv
Mtb H37Rv (ATCC 27294) [7] = test system: Mtb H37Rv (ATCC 27294); set-up: method as in PMID 27508879; conditions: cited from earlier work
[8] = test system: MRC-5 human lung fibroblast cell line; set-up: method as in PMID 27508879; conditions: cited from earlier work

Q: Which MIC90 (Mtb H37Rv (ATCC 27294) [1]) does the source give for `N#Cc1c(-c2ccc(F)cc2)[n+]([O-])c2ccc(C3OCCO3)cc2[n+]1[O-]` [Compound 23, 3-Cyano-6-(1,3-dioxolan-2-yl)-2-(4-fluorophenyl)quinoxaline 1,4-Dioxide] here?
A: 8.6 µg/mL (≈ 24.3 µM)

Q: And the IC50 [2]?
A: 7.7 µg/mL (≈ 21.8 µM)

Q: Which results are given for `N#Cc1c(-c2ccc(Cl)cc2)[n+]([O-])c2ccc(C3OCCO3)cc2[n+]1[O-]` [Compound 21, 2-(4-Chlorophenyl)-3-cyano-6-(1,3-dioxolan-2-yl)quinoxaline 1,4-Dioxide]?
A: MIC90 (Mtb H37Rv (ATCC 27294) [1]): 6.4 µg/mL (≈ 17.3 µM); IC50 [2]: 5 µg/mL (≈ 13.5 µM)

Q: For `Nc1ccc(C(=O)N/N=C/c2ccc3no[n+]([O-])c3c2)cc1` [Compound 17, (E)-6-((2-(4-Aminobenzoyl)hydrazono)methyl)benzo[c][1,2,5]oxadiazole 1-Oxide], which MIC90 (Mtb H37Rv (ATCC 27294) [1]) is on record?
A: 3.16 µg/mL (≈ 10.6 µM)

Q: And the MIC90 [3]?
A: > 200 µM

Q: What about the MIC90 [4] of the same compound?
A: > 200 µM

Q: And the MIC90 [5]?
A: > 200 µM

Q: What about the IC50 [2] of the same compound?
A: 250 µg/mL (≈ 841 µM)

Q: Which results are given for `N#Cc1c(-c2ccco2)[n+]([O-])c2ccc(C3OCCO3)cc2[n+]1[O-]` [Compound 25, 3-Cyano-6-(1,3-dioxolan-2-yl)-2-(furan-2-yl)quinoxaline 1,4-Dioxide]?
A: MIC90 (Mtb H37Rv (ATCC 27294) [1]): 1.7 µg/mL (≈ 5.23 µM); IC50 [2]: 11.6 µg/mL (≈ 35.7 µM)

Q: Which results are given for `Cc1ccc(-c2c(C#N)[n+]([O-])c3cc(C4OCCO4)ccc3[n+]2[O-])cc1` [Compound 20, 3-Cyano-6-(1,3-dioxolan-2-yl)-2-(p-tolyl)quinoxaline 1,4-Dioxide]?
A: MIC90 (Mtb H37Rv (ATCC 27294) [1]): 5.7 µg/mL (≈ 16.3 µM); IC50 [2]: 6.2 µg/mL (≈ 17.7 µM)

Q: Which MIC90 (Mtb H37Rv (ATCC 27294) [1]) does the source give for `Nc1ccccc1C(=O)N/N=C/c1ccc2no[n+]([O-])c2c1` [Compound 15, (E)-6-((2-(2-Aminobenzoyl)hydrazono)methyl)benzo[c][1,2,5]oxadiazole 1-Oxide] here?
A: 3.7 µg/mL (≈ 12.4 µM)

Q: What about the IC50 [2] of the same compound?
A: 36.4 µg/mL (≈ 122 µM)

Q: With `NC(=O)c1c(COc2cccc(/C=N/NC(=O)c3ccncc3)c2)no[n+]1[O-]` [Compound 4b, (E)-3-Carbamoyl-4-((3-((2-isonicotinoylhydrazono)methyl)phenoxy)methyl)-1,2,5-oxadiazole 2-Oxide] as the compound, how does the MIC90 (Mtb H37Rv (ATCC 27294) [1]) read?
A: 0.15 µg/mL (≈ 0.392 µM)

Q: And the MIC90 [6]?
A: 1.6 µg/mL (≈ 4.18 µM)

Q: What about the IC50 [2] of the same compound?
A: 490 µg/mL (≈ 1280 µM)

Q: Which MIC (Mtb H37Rv (ATCC 27294) [1]) does the source give for `O=C(N/N=C/c1ccc2no[n+]([O-])c2c1)c1ccc([N+](=O)[O-])cc1` [Compound 11, (E)-6-((2-(4-Nitrobenzoyl)hydrazono)methyl)benzo[c][1,2,5]oxadiazole 1-Oxide] here?
A: > 62 µM

Q: What about the MIC90 (Mtb H37Rv (ATCC 27294) [1]) of the same compound?
A: 1.73 µg/mL (≈ 5.29 µM)

Q: And the MIC90 [3]?
A: > 200 µM

Q: What about the MIC90 [4] of the same compound?
A: > 200 µM

Q: And the MIC90 [5]?
A: > 200 µM

Q: Which MIC90 (Mtb H37Rv (ATCC 27294) [1]) does the source give for `NC(=O)c1c(COc2ccccc2/C=N/NC(=O)c2ccncc2)no[n+]1[O-]` [Compound 4a, (E)-3-Carbamoyl-4-((2-((2-isonicotinoylhydrazono)methyl)phenoxy)methyl)-1,2,5-oxadiazole 2-Oxide] here?
A: 0.16 µg/mL (≈ 0.418 µM)

Q: And the MIC90 [6]?
A: 2.95 µg/mL (≈ 7.72 µM)

Q: And the IC50 [2]?
A: 327 µg/mL (≈ 854 µM)

Q: What does the source list for `Nc1cccc(C(=O)N/N=C/c2ccc3no[n+]([O-])c3c2)c1` [Compound 16, (E)-6-((2-(3-Aminobenzoyl)hydrazono)methyl)benzo[c][1,2,5]oxadiazole 1-Oxide]?
A: MIC90 (Mtb H37Rv (ATCC 27294) [1]): 5.3 µg/mL (≈ 17.8 µM); IC50 [2]: 24.4 µg/mL (≈ 82.1 µM)

Q: With `N#Cc1c(-c2ccccc2)[n+]([O-])c2ccc(C3OCCO3)cc2[n+]1[O-]` [Compound 19] as the compound, how does the MIC90 (Mtb H37Rv (ATCC 27294) [1]) read?
A: 10.3 µg/mL (≈ 30.7 µM)

Q: What about the IC50 [2] of the same compound?
A: 10.7 µg/mL (≈ 31.9 µM)

Q: With `O=C(N/N=C/c1ccc2no[n+]([O-])c2c1)c1ccccc1` [Compound 9, (E)-6-((2-Benzoylhydrazono)methyl)benzo[c][1,2,5]oxadiazole 1-Oxide] as the compound, how does the MIC90 (Mtb H37Rv (ATCC 27294) [1]) read?
A: 2.4 µg/mL (≈ 8.5 µM)

Q: And the IC50 [2]?
A: 36.8 µg/mL (≈ 130 µM)

Q: Which results are given for `COc1ccc(-c2c(C#N)[n+]([O-])c3cc(C4OCCO4)ccc3[n+]2[O-])cc1` [Compound 22, 3-Cyano-6-(1,3-dioxolan-2-yl)-2-(4-methoxyphenyl)quinoxaline 1,4-Dioxide]?
A: MIC90 (Mtb H37Rv (ATCC 27294) [1]): 4.4 µg/mL (≈ 12 µM); IC50 [2]: 5.5 µg/mL (≈ 15.1 µM)

Q: What does the source list for `O=C(N/N=C/c1ccc2no[n+]([O-])c2c1)c1ccc(O)cc1` [Compound 14, (E)-6-((2-(4-Hydroxybenzoyl)hydrazono)methyl)benzo[c][1,2,5]oxadiazole 1-Oxide]?
A: MIC90 (Mtb H37Rv (ATCC 27294) [1]): > 25 µg/mL; MIC90 [3]: > 200 µM; MIC90 [4]: > 200 µM; MIC90 [5]: > 200 µM

Q: With `N#Cc1c(-c2ccccc2)[n+]([O-])c2ccc(/C=N/NC(=O)c3ccncc3)cc2[n+]1[O-]` [Compound 28] as the compound, how does the MIC90 (Mtb H37Rv (ATCC 27294) [1]) read?
A: 16.3 µg/mL (≈ 39.7 µM)

Q: And the IC50 [2]?
A: 8.6 µg/mL (≈ 21 µM)

Q: Which MIC90 (Mtb H37Rv (ATCC 27294) [1]) does the source give for `N#Cc1c(-c2cccs2)[n+]([O-])c2ccc(C3OCCO3)cc2[n+]1[O-]` [Compound 26, 3-Cyano-6-(1,3-dioxolan-2-yl)-2-(thiophen-2-yl)quinoxaline 1,4-Dioxide] here?
A: 4.1 µg/mL (≈ 12 µM)

Q: What about the IC50 [2] of the same compound?
A: 5.9 µg/mL (≈ 17.3 µM)

Q: Which MIC90 (Mtb H37Rv (ATCC 27294) [1]) does the source give for `NNC(=O)c1ccncc1` [isoniazid, reference compound] here?
A: 0.014 µg/mL (≈ 0.102 µM)

Q: Which MIC90 (Mtb H37Rv (ATCC 27294) [7]) does the source give for `O=C(N/N=C/c1ccc(Oc2no[n+]([O-])c2S(=O)(=O)c2ccccc2)cc1)c1ccncc1` [(E)-4-(4-((2-isonicotinoylhydrazono)methyl)phenoxy)-3-(phenylsulfonyl)-1,2,5-oxadiazole 2-oxide] here?
A: 1 µM and 1.0 µM

Q: And the IC50 [8]?
A: 43 µM

Q: For `CC(C)(C)c1ccc(C(=O)N/N=C/c2ccc3no[n+]([O-])c3c2)cc1` [Compound 10, (E)-6-((2-(4-(tert-Butyl)benzoyl)hydrazono)methyl)benzo[c][1,2,5]oxadiazole 1-Oxide], which MIC90 (Mtb H37Rv (ATCC 27294) [1]) is on record?
A: 1.3 µg/mL (≈ 3.84 µM)

Q: And the IC50 [2]?
A: 8.5 µg/mL (≈ 25.1 µM)

Q: With `O=C(N/N=C/c1ccc2no[n+]([O-])c2c1)c1cccc(O)c1` [Compound 13, (E)-6-((2-(3-Hydroxybenzoyl)hydrazono)methyl)benzo[c][1,2,5]oxadiazole 1-Oxide] as the compound, how does the MIC90 (Mtb H37Rv (ATCC 27294) [1]) read?
A: > 25 µg/mL

Q: For `NC(=O)c1c(COc2ccc(/C=N/NC(=O)c3ccncc3)cc2)no[n+]1[O-]` [Compound 4c, (E)-3-Carbamoyl-4-((4-((2-isonicotinoylhydrazono)methyl)phenoxy)methyl)-1,2,5-oxadiazole 2-Oxide], which MIC90 (Mtb H37Rv (ATCC 27294) [1]) is on record?
A: 0.16 µg/mL (≈ 0.418 µM)

Q: What about the MIC90 [6] of the same compound?
A: 0.78 µg/mL (≈ 2.04 µM)

Q: And the IC50 [2]?
A: 443 µg/mL (≈ 1160 µM)

Q: For `O=C(N/N=C/c1ccc2no[n+]([O-])c2c1)c1ccccc1O` [Compound 12, (E)-6-((2-(2-Hydroxybenzoyl)hydrazono)methyl)benzo[c][1,2,5]oxadiazole 1-Oxide], which MIC (Mtb H37Rv (ATCC 27294) [1]) is on record?
A: 16.4 µg/mL

Q: With `N#Cc1c(-c2ccc(OC(F)(F)F)cc2)[n+]([O-])c2ccc(C3OCCO3)cc2[n+]1[O-]` [Compound 24, 3-Cyano-6-(1,3-dioxolan-2-yl)-2-(4-(trifluoromethoxy)phenyl)quinoxaline 1,4-Dioxide] as the compound, how does the MIC90 (Mtb H37Rv (ATCC 27294) [1]) read?
A: 6.5 µg/mL (≈ 15.5 µM)

Q: And the IC50 [2]?
A: 28 µg/mL (≈ 66.8 µM)
